This is an account of results in patent US7071165B2, “LHRH antagonist peptides” (Indiana University Research and Technology Corporation, priority 1995, dated 2006).

This assay relates to ovulation in female rats. Description: Anti-ovulatory activity (AOA) in vivo assay in rats. The arrangement: species or system rat. As for the experimental part:
As used herein, “LHRH antagonist peptide” is intended to include peptides and peptide analogs which inhibit LHRH activity (i.e., has “LHRH antagonist activity”) in vivo or in vitro. Candidate LHRH antagonist peptides can be assayed, for example, in the animal model described in Corbin and Beattie, Endocrine Res. Commun. 2:1 (1975) (and see infra). In this assay, the LHRH antagonistic activity of a candidate compound is assayed by measuring the antiovulatory activity (AOA) of the compound in rats.
Anti-ovulatory activity (AOA) was measured by an in vivo assay in rats, as described in Corbin and Beattie, Endocrine Res. Commun. 2:1 (1975). In brief, female rats are injected with a candidate LHRH antagonist on the day of proestrus; in general, the candidate LHRH antagonist was dissolved in 0.1% DMSO. The ability of the candidate peptide to inhibit ovulation is measured by determining the number of rats which ovulate. A candidate peptide is considered to have LHRH antagonist qualities if it inhibits ovulation in at least 50% of the treated rats at a dose of 5 μg per rat. Preferred LHRH antagonists inhibit ovulation in at least 50% of rats at a dose of 2 μg per rat, more preferably at a dose of […], and still more preferably at a dose of 0.5 μg per rat.

On to “Ac-D-Nal^1, 4-Cl-D-Phe^2, D-Trp^3, D-Met(S^+CH2C6H5)^6, D-Ala^10-LHRH.2TFA [Compound 3961]”, for which the “AO activity (AOA): rats which ovulate / rats treated” value runs as follows: (dose 1 μg per rat) 3/8@1.00; (dose 2 μg per rat) 4/8@2.00.

As for “Ac-D-Nal^1, 4-Cl-D-Phe^2, D-Pal^3, D-Pal(1-Bu)^6, Lys(iPr)^8, D-Ala^10-LHRH.TFA [Compound 3428]”, for the setting “dose 1 μg per rat”, the “AO activity (AOA): rats which ovulate / rats treated” value is on record as 1/8@1 μg. On the same count and under the same terms, as for “Ac-D-Pal^1, 4-Cl-D-Phe^2, D-Pal^3, D-Pal(iPr)^6, Lys(iPr)^8, D-Ala^10-LHRH.2TFA [Compound 3804]”, the figure is 8/8@1.0.

Consider “Ac-D-Nal^1, 4-Cl-D-Phe^2, D-Pal^3, Lys(iPr)^5, D-Trp^6, Trp^7,Orn^8, D-Ala^10-LHRH.TFA [Compound 3855]”, for which the “AO activity (AOA): rats which ovulate / rats treated” value (dose 1 μg per rat) is on record as 4/8@1.0. On the same count and under the same terms, the value for “Ac-D-Qal^1, 4-Cl-D-Phe^2, D-Pal^3, D-Lys(Ppic)^6, Lys(iPr)^8, D-Ala^10-LHRH.TFA [Compound 3787]” was 7/8@1.0; that for “Ac-D-Nal^1, 4-Cl-D-Phe^2, D-Pal^3, D-Gln(iPr)^6, Lys(iPr)^8, D-Ala^10-LHRH.2TFA [Compound 3545]” was 7/8@1 μg; that for “Ac-D-Nal^1, 4-Cl-D-Phe^2, D-Pal^3, D-Lys(Ala)^6, Lys(iPr)^8, D-Ala^10-LHRH.TFA [Compound 3771]” was 7/8@1.0.

In the case of “Ac-D-Nal^1, 4-Cl-D-Phe^2, D-Pal^3, Lys(ClNic)^5, D-Lys(ClNic)^6, Lys(iPr)^8, D-Ala^10-LHRH.2TFA [Compound 3544]”, the “AO activity (AOA): rats which ovulate / rats treated” value (dose 1 μg per rat) is recorded as 6/8@1 μg.

Regarding “Ac-D-Nal^1, 4-Cl-D-Phe^2, D-Pal^3, D-Met(S^+Me)^6, Met(S^+Me)^8, D-Ala^10-LHRH.2TFA [Compound 4016]”, where the note is “dose 1 μg per rat”, the “AO activity (AOA): rats which ovulate / rats treated” value is recorded as 6/8@1.00. Still for that read-out and setting: the value for “Ac-D-Qal^1, 4-Cl-D-Phe^2, D-Pal^3, D-Lys(Onic)^6, Lys(iPr)^8, D-Ala^10-LHRH.TFA [Compound 3801]” was 8/8@1.0. As to “Ac-D-Nal^1, 4-Cl-D-Phe^2, D-Pal^3, Lys(iPr)^5, D-His^6, Trp^7, Orn^8, D-Ala^10-LHRH.TFA [Compound 3852]”, the “AO activity (AOA): rats which ovulate / rats treated” value (dose 5 μg per rat) is on record as 8/8@5.0. Take “Ac-Sar^1, 4-Cl-D-Phe^2, 1-1-Nal^3, D-Pal(Bzl)^6, Lys(iPr)^8,D-Ala^10-LHRH.2TFA [Compound 3769]”: the “AO activity (AOA): rats which ovulate / rats treated” value (dose 1 μg per rat) is on record as 6/8@1.0.

Turning to “Ac-L-(or D)-9-anthryl-Ala^1, 4-Cl-D-Phe^2, D-Pal^3, D-Cit^6-Lys(iPr)^8, D-Ala^10-LHRH.TFA [Compound 3367]”, under “dose 5 μg per rat”, the “AO activity (AOA): rats which ovulate / rats treated” value is 7/8@5 μg. Take “Ac-D-Qal^1, 4-Cl-D-Phe^2, D-Pal^3, D-Lys(Ac)^6, Lys(iPr)^8, D-Ala^10-LHRH.TFA [Compound 3740]”: the “AO activity (AOA): rats which ovulate / rats treated” value (dose 1 μg per rat) is 6/8@1.0.

On to “Ac-D-Nal^1, 4-Cl-D-Phe^2, D-Pal^3, His^5D-Pal(iPr)^6, Lys(iPr)^8, D-Ala^10-LHRH.2TFA [Compound 3754]”, for which, under “dose 1 μg per rat”, the “AO activity (AOA): rats which ovulate / rats treated” value is 5/8@1.0. Take “Ac-D-Nal^1, 4-Cl-D-Phe^2, D-Pal^3, D-Lys(COCH2CH2N(Et)2)^6, D-Ala^10-LHRH.2TFA [Compound 3949]”: for the setting “rat, in vivo”, the “AO activity (AOA), in words” value is listed as “low activity”.

For the substance “Ac-D-Nal^1, 4-Cl-D-Phe^2, D-Pal(N—O)^3, D-Pal(iPr)^6, Lys(iPr)^8, D-Ala^10-LHRH.2TFA [Compound 3882]”, for the setting “dose 1 μg per rat”, the “AO activity (AOA): rats which ovulate / rats treated” value is recorded as 6/8@1.0.

Regarding “Ac-D-Nal^1,4-Cl-D-Phe^2,D-Pal^3,D-Lys(COCH2S^+Me2)^6, D-Ala^10-LHRH.2TFA [Compound 4014]”, under “dose 1 μg per rat”, the “AO activity (AOA): rats which ovulate / rats treated” value was 0/8@1.00. Same read-out and setting: the value for “Ac-D-Nal^1, 4-Cl-D-Phe^2, D-Pal^3, Lys(Nic)^5, D-Pal(Bzl)^6, Lys(iPr)^8, D-Ala^10-LHRH.3TFA [Compound 3547]” was 6/8@1 μg. Still for that read-out and setting: the value for “Ac-D-Nal^1, 4-Cl-D-Phe^2, D-Pal^3, D-Lys(3-Δ-Pro)^6, Lys(iPr)^8, D-Ala^10-LHRH-TFA [Compound 3721]” was 4/8@1.0; that for “Ac-D-Qal^1, 4-Cl-D-Phe^2, D-Pal^3, D-Lys(Imdac)^6, Lys(iPr)^8, D-Ala^10-LHRH.TFA [Compound 3800]” was 7/8@1.0; that for “Ac-D-Nal^1, 4-Cl-D-Phe^2, D-Pal^3, D-Orn(COCH2S^+Me2)^6, D-Ala^10-LHRH.2TFA [Compound 4013]” was 0/8@1.00. The same measure, in the same setting: as for “Ac-D-Nal^1, 4-Cl-D-Phe^2, D-Pal^3, D-Lys(Orotic)^6, Lys(iPr)^8, D-Ala^10-LHRH.TFA [Compound 3762]”, the figure is 6/8@1.0; as for “Ac-D-Nal^1, 4-Cl-D-Phe^2, D-Pal^3, D-Lys(Gulonyl)^6, Lys(iPr)^8, D-Ala^10-LHRH.TFA [Compound 3506]”, 4/8@1 μg; as for “Ac-D-Nal^1, 4-Cl-D-Phe^2, D-Pal^3, Asn^4, Tyr^5, D-Cit^6, Lys(iPr)^8, D-Ala^10-LHRH.TFA [Compound 3434]”, 4/8@1 μg. As for “Ac-D-Nal^1, 4-Cl-D-Phe^2, D-Pal^3, D-Arg^6, Orn(COCH2SMe)^8, D-Ala^10-LHRH.2TFA [Compound 3994]”, the “AO activity (AOA): rats which ovulate / rats treated” value (dose 1 μg per rat) is recorded as 6/8@1.00. Consider “Ac-D-Qal^1, 4-Cl-D-Phe^2, D-Pal^3, D-Lys(pGlu)^6, Lys(iPr)^8, D-Ala^10-LHRH.TFA [Compound 3723]”, for which the “AO activity (AOA): rats which ovulate / rats treated” value (dose 1 μg per rat) is listed as 7/8@1.0. Turning to “Ac-D-Qal^1, 4-Cl-D-Phe^2, D-Pal^3, D-Lys(Dodac)^6, Lys(iPr)^8, D-Ala^10-LHRH.TFA [Compound 3742]”, the “AO activity (AOA): rats which ovulate / rats treated” value (dose 1 μg per rat) is listed as 6/8@1.0. On the same count and under the same terms, as for “Ac-D-Nal^1, 4-Cl-D-Phe^2, D-Phe^2, D-Pal^3, Ala^5, D-Pal(iPr)^6, Lys(iPr)^8, D-Ala^10-LHRH.2TFA [Compound 3756]”, the figure is 6/8@1.0; as for “Ac-D-Nal^1, 4-Cl-D-Phe^2, D-Pal^3, D-Arg^6, Met^8, D-Ala^10-LHRH.TFA [Compound 3995]”, 5/8@1.00. Still for that read-out and setting: the value for “Ac-D-Nal^1, 4-Cl-D-Phe^2, D-Pal^3, D-Glu(CSer)^6, Lys(iPr)^8, D-Ala^10-LHRH.2TFA [Compound 3550]” was 6/8@1 μg; that for “Ac-D-Nal^1, 4-Cl-D-Phe^2, D-Pal^3, D-Arg^6, Lys(COCH2S^+Me2)^8, D-Ala^10-LHRH.2TFA [Compound 4015]” was 1/8@1.00; that for “Ac-D-Nal^1, 4-Cl-D-Phe^2, D-Pal^3, D-Glu^6, Lys(iPr)^8, D-Ala^10-LHRH.TFA [Compound 3552]” was 8/8@1 μg. Same read-out and setting: as for “Ac-N^αMe-D-Nal^1, 4-Cl-D-Phe^2, D-Pal^3, D-Cit^6, Lys(iPr)^8, D-Ala^10-LHRH.TFA [Compound 3442]”, the figure is 7/8@1 μg; as for “Ac-D-Nal^1, 4-Cl-D-Phe^2, D-Pal^3, D-Lys(iPr)^5, D-Lys(TFAc)^6, Lys(iPr)^8, D-Ala^10-LHRH.2TFA [Compound 3753]”, 7/8@1.0. For Met(S^+Me)^8-LHRH.TFA [Compound 3941], the “AO activity (AOA): rats which ovulate / rats treated” value (dose 50 μg per rat) is 8/8@50.0. For “Ac-D-Qal^1, 4-Cl-D-Phe^2, D-Pal^3, D-Lys(Gulonyl)^6, Lys(iPr)^8, D-Ala^10-LHRH.TFA [Compound 3785]”, where the note is “dose 1 μg per rat”, the “AO activity (AOA): rats which ovulate / rats treated” value is listed as 7/8@1.0.

Take “Ac-D-Nal^1, 4-Cl-D-Phe^2, D-Pal^3, D-Lys(2-ClNic)^6, Lys(iPr)^8, D-Ala^10-LHRH.TFA [Compound 3441]”: the “AO activity (AOA): rats which ovulate / rats treated” value (dose 1 μg per rat) is given as 8/8@1 μg. “Ac-D-Nal^1, 4-Cl-D-Phe^2, D-Pal^3, His^5, D-Arg^6, Trp^7, Orn^8, D-Ala^10-LHRH.TFA [Compound 3853]”: the “AO activity (AOA): rats which ovulate / rats treated” value (dose 5 μg per rat) is 0/8@5.0.

Turning to “Ac-D-Nal^1, 4-Cl-D-Phe^2, D-Pal^3, Cit^5, D-Pal(iPr)^6, Lys(iPr)^8, D-Ala^10-LHRH.TFA [Compound 3435]”, the “AO activity (AOA): rats which ovulate / rats treated” value (dose 1 μg per rat) is on record as 7/8@1 μg. On the same count and under the same terms, as for “Ac-D-Nal^1, 4-Cl-D-Phe^2, D-Pal^3, D-Met(S^+CH2COPh)^6, D-Ala^10-LHRH.2TFA [Compound 3968]”, the figure is 4/8@1.00.

As for “Ac-D-Nal^1, 4-Cl-D-Phe^2, D-Trp^3, D-Met^6, D-Ala^10-LHRH.TFA [Compound 3881]”, the “AO activity (AOA): rats which ovulate / rats treated” value (dose 1 μg per rat) is 7/8@1.0. Still for that read-out and setting: the value for “Ac-D-Nal^1, 4-Cl-D-Phe^2, D-Trp^3, D-Met(S^+CH2—CH═CH2)^6, D-Ala^10-LHRH.2TFA [Compound 3984]” was 3/8@1.00.

“Ac-D-Nal^1, 4-Cl-D-Phe^2, D-Pal^3, D-Glu(PEG)^6, Lys(iPr)^8, D-Ala^10-LHRH.2TFA [Compound 3542]”: under “dose 2 μg per rat”, the “AO activity (AOA): rats which ovulate / rats treated” value is 7/8@2 μg. As to Lys(COCH2Br)^8-LHRH [Compound 3942], for the setting “dose 50 μg per rat”, the “AO activity (AOA): rats which ovulate / rats treated” value is 8/8@50.0.
